From US20100286147A1 (priority 2008, published 2010)

How the values were obtained:
Assay type in all cases: in vivo
Phytophthora infestans [1] = settings: tomato seedlings, sprayed 17 h after inoculation; visual rating, 100 = 100% disease control, 0 = no control relative to controls; test concentration not given
Phytophthora infestans [2] = settings: tomato seedlings, sprayed the day before inoculation; visual rating, 100 = 100% disease control, 0 = no control relative to controls; test concentration not given
Plasmopara viticola = assay: Test A: grape downy mildew, grape seedlings sprayed after inoculation; settings: sprayed 24 h after inoculation, visual rating, 100 = 100% disease control, 0 = no control relative to controls, test concentration not given
Excerpt: General protocol for preparing test suspensions for Test A-C: The test compounds were first dissolved in acetone in an amount equal to 3% of the final volume and then suspended at the desired concentration (in ppm) in acetone and purified water (50/50 mix by volume) containing 250 ppm of the surfactant Trem® 014 (polyhydric alcohol esters). The resulting test suspensions were then used in Tests A-C. Spraying a 40 ppm test suspension to the point of run-off on the test plants was equivalent to a rate of 100 g/ha.
Grape seedlings were inoculated with a spore suspension of Plasmopara viticola (the causal agent of grape downy mildew) and incubated in a saturated atmosphere at 20° C. for 24 h. After a short drying period, the test suspension was sprayed to the point of run-off on the grape seedlings, which were then moved to a growth chamber at 20° C. for 5 days, after which time the grape seedling were placed back into a saturated atmosphere at 20° C. for 24 h. Upon removal, visual disease ratings were made.
Results for Tests A-C are given in Table A. In the table, a rating of 100 indicates 100% disease control and a rating of 0 indicates no disease control (relative to the controls).

Row | Compound | Percent Disease Control Test C (Phytophthora infestans [1]) [%] | Percent Disease Control Test B (Phytophthora infestans [2]) [%] | Percent Disease Control Test A (Plasmopara viticola) [%]
1 | Cc1cc(C(F)(F)F)nn1CC(=O)N1CCC(c2nc(C3=NOC(c4cccc(-n5cncn5)c4)C3)cs2)CC1 (stereo not drawn) [Compound 1, 1-[4-[4-[4,5-dihydro-5-[3-(1H-1,2,4-triazol-1-yl)phenyl]-3-isoxazolyl]-2-thiazolyl]-1-piperidinyl]-2-[5-methyl-3-(trifluoromethyl)-1H-pyrazol-1-yl]ethanone] | 99 | 100 | 91
2 | Cc1cc(C(F)(F)F)nn1CC(=O)N1CCC(c2nc(C3=NOC(c4ccc(-c5ccccc5)cc4)C3)cs2)CC1 (stereo not drawn) [Compound 2] | 32 | 90 | 76
3 | Cc1cc(C(F)(F)F)nn1CC(=O)N1CCC(c2nc(C3=NOC(c4ccccc4Oc4ccccc4)C3)cs2)CC1 (stereo not drawn) [Compound 3] | 93 | 100 | 97
4 | Cc1cc(C(F)(F)F)nn1CC(=O)N1CCC(c2nc(C3=NOC(c4ccccc4N4CCCCC4)C3)cs2)CC1 (stereo not drawn) [Compound 4] | 83 | 99 | 58
5 | Cc1cc(C(F)(F)F)nn1CC(=O)N1CCC(c2nc(C3=NOC(c4ccccc4-n4cncn4)C3)cs2)CC1 (stereo not drawn) [Compound 5] | 99 | 100 | 98
6 | Cc1cc(C(F)(F)F)nn1CC(=O)N1CCC(c2nc(C3=NOC(c4ccccc4N4CCOCC4)C3)cs2)CC1 (stereo not drawn) [Compound 6] | 99 | 100 | 87
7 | Cc1cc(C(F)(F)F)nn1CC(=O)N1CCC(c2nc(C3=NOC(c4ccccc4Cc4ccccc4)C3)cs2)CC1 (stereo not drawn) [Compound 7] | 86 | 99 | 73
8 | Cc1cccc(C2CC(c3csc(C4CCN(C(=O)Cn5nc(C(F)(F)F)cc5C)CC4)n3)=NO2)c1-n1c(O)nn(C)c1=O (stereo not drawn) [Compound 8] | 53 | 100 | 0
9 | Cc1cc(C(F)(F)F)nn1CC(=O)N1CCC(c2nc(C3=NOC(c4ccccc4C(=O)c4ccccc4)C3)cs2)CC1 (stereo not drawn) [Compound 9] | 17 | 100 | 0
10 | Cc1cc(C(F)(F)F)nn1CC(=O)N1CCC(c2nc(C3=NOC(c4ccccc4N4CCN(C)CC4)C3)cs2)CC1 (stereo not drawn) [Compound 10] | 93 | 100 | 10
11 | Cc1cc(C(F)(F)F)nn1CC(=O)N1CCC(c2nc(C3=NOC(c4c(F)cccc4-n4cncn4)C3)cs2)CC1 (stereo not drawn) [Compound 11] | 99 | 100 | 99
12 | COc1nn(C)c(=O)n1-c1c(C)cccc1C1CC(c2csc(C3CCN(C(=O)Cn4nc(C(F)(F)F)cc4C)CC3)n2)=NO1 (stereo not drawn) [Compound 12] | 99 | 100 | 31
13 | Cc1cc(C(F)(F)F)nn1CC(=O)N1CCC(c2nc(C3=NOC(n4ccc(-c5ccccc5)n4)C3)cs2)CC1 (stereo not drawn) [Compound 13] | 93 | 100 | 56
14 | Cc1cc(C(F)(F)F)nn1CC(=O)N1CCC(c2nc(C3=NOC(N4C(=O)NC(C)(c5ccccc5)C4=O)C3)cs2)CC1 (stereo not drawn) [Compound 15] | 97 | 100 | 92
15 | Cc1cc(C(F)(F)F)nn1CC(=O)N1CCC(c2nc(C3=NOC(c4ccccc4-c4ccccc4)C3)cs2)CC1 (stereo not drawn) [Compound 16] | 99 | 100 | 99
16 | Cc1ccc(C)c(NC(=O)N2CCC(c3nc(C4=NOC(c5ccccc5-c5ccccc5)C4)cs3)CC2)c1 (stereo not drawn) [Compound 17, 4-[4-(5-[1,1′-biphenyl]-2-yl-4,5-dihydro-3-isoxazolyl)-2-thiazolyl]-N-(2,5-dimethylphenyl)-1-piperidinecarboxamide] | 99 | 100 | 98
17 | Cc1ccc(C)c(NC(=O)N2CCC(c3nc(C4=NOC(c5ccccc5Oc5ccccc5)C4)cs3)CC2)c1 (stereo not drawn) [Compound 18] | 58 | 93 | 67
18 | Cc1ccc(C)c(NC(=O)N2CCC(c3nc(C4=NOC(c5ccccc5-n5cncn5)C4)cs3)CC2)c1 (stereo not drawn) [Compound 19] | 99 | 100 | 99
